Earlier results, collected in patent US11311853B2, “Process for the preparation of double crosslinked core-shell polymeric nanoparticles for multimodal imaging and theranostic applications” (FONDAZIONE ISTITUTO ITALIANO DI TECNOLOGIA, priority 2017, dated 2022).

Conditions: commercial Gd-DTPA

O=C([O-])CN(CCN(CC(=O)[O-])CC(=O)O)CCN(CC(=O)[O-])CC(=O)O.[Gd+3] [Gd-DTPA, Gd-diethylenetriaminepentaacetic acid]
relaxivity in MRI: 4 mM⁻¹ s⁻¹
